In ChEMBL document CHEMBL5247626, “In vitro and in vivo biological evaluation of newly synthesized multi-target 20(R)-panaxadiol derivatives for treating Alzheimer's disease” (Eur J Med Chem, 2022):
The source made the active and inactive calls. The rule behind the calls is not given here.

Columns and labels:
PC-12 [1] = assay: Cytotoxicity against rat PC12 cells assessed as decrease in cell viability at 120 uM incubated for 24 hrs by MTT assay; assay type: toxicity, cell-based; settings: pc-12, 24 h
Mus musculus [2] = assay: Antialzheimer activity against amyloid beta (25 to 35)-induced brain injury ICR mouse model assessed as increase in NeuN expression level in hippocampal CA1 region at 50 mg/kg,po administrated for 21 days by immunohistochemistry analysis; assay type: functional, organism-based; settings: time 21.0 day
Mus musculus [3] = assay: Antialzheimer activity against amyloid beta (25 to 35)-induced cognitive deficit ICR mouse model assessed as effect on total number of arm enteries at 12.5 to 50 mg/kg,po observed after 11 days of administration by Y maze test; assay type: functional, organism-based; settings: dose 12.5-50 mg/kg, time 11.0 day
PC-12 [4] = assay: Neuroprotective activity against amyloid beta (25 to 35)-induced rat PC12 cells assessed as decrease in p38 expression level at 7.5 to 30 uM preincubated for 30 mins followed by amyloid beta (25 to 35) addition and measured after 24 hrs by western blot assay; assay type: functional, cell-based; settings: dose 7.5-30 µM, time 24.5 hrs
HepG2 [5] = assay: Cytotoxicity against human HepG2 cells assessed as decrease in cell viability at 120 uM incubated for 24 hrs by MTT assay; assay type: toxicity, cell-based; settings: hepg2, 24 h
PC-12 [6] = assay: Neuroprotective activity against rat PC12 cells assessed as reduction in amyloid beta (25 to 35)-induced cytotoxicity incubated for 4 hrs followed by amyloid beta (25 to 35) treatment for 24 hrs by MTT assay; assay type: functional, cell-based
[7] = AUC (0-infinity) in Sprague-Dawley rat at 60 mg/kg,po measured at 0.25 to 24 hrs post administration by LC-MS/MS analysis; assay type: ADME, organism-based; parameters: dose 60 mg/kg, time 0.25-24 hrs, route po; settings: in vivo
PC-12 [8] = assay: Neuroprotective activity against amyloid beta (25 to 35)-induced rat PC12 cells assessed as decrease in NF-kappaB phosphorylation level at 7.5 to 30 uM preincubated for 30 mins followed by amyloid beta (25 to 35) addition and measured after 24 hrs by western blot assay; assay type: functional, cell-based; settings: dose 7.5-30 µM, time 24.5 hrs
HUVEC = assay: Cytotoxicity against human HUVEC cells assessed as decrease in cell viability at 120 uM incubated for 24 hrs by MTT assay; assay type: toxicity, cell-based
Mus musculus [9] = assay: Antialzheimer activity against amyloid beta (25 to 35)-induced cognitive deficit ICR mouse model assessed as increase in preferential index at 50 mg/kg,po observed after 24 hrs of administration by novel object recognition test; assay type: functional, organism-based
[10] = MRT (0 to t) in Sprague-Dawley rat at 10 mg/kg,iv measured at 0.083 to 24 hrs post administration by LC-MS/MS analysis; assay type: ADME, organism-based; settings: in vivo, time 0.083-24 hrs
HepG2 [11] = assay: Cytotoxicity against human HepG2 cells assessed as effect on survival at < 60 uM incubated for 24 hrs by MTT assay; assay type: toxicity, cell-based; settings: hepg2, 24 h
[12] = Cmax in Sprague-Dawley rat at 60 mg/kg,po measured at 0.25 to 24 hrs post administration by LC-MS/MS analysis; assay type: ADME, organism-based; parameters: dose 60 mg/kg, time upper 24 hrs, time lower 0.25 hrs, route po; settings: in vivo
PC-12 [13] = assay: Neuroprotective activity against amyloid beta (25 to 35)-induced rat PC12 cells assessed as decrease in IL-1beta expression level at 7.5 to 30 uM preincubated for 30 mins followed by amyloid beta (25 to 35) addition and measured after 24 hrs by western blot assay; assay type: functional, cell-based; settings: dose 7.5-30 µM, time 24.5 hrs
[14] = Clearance in Sprague-Dawley rat at 10 mg/kg,iv measured at 0.083 to 24 hrs post administration by LC-MS/MS analysis; assay type: ADME, organism-based; settings: in vivo, time 0.083-24 hrs
Mus musculus [15] = assay: Antialzheimer activity against amyloid beta (25 to 35)-induced cognitive deficit ICR mouse model assessed as increase in discrimination index at 25 mg/kg,po observed after 1 hr of administration by novel object recognition test; assay type: functional, organism-based
[16] = Volume of distribution of steady state in Sprague-Dawley rat at 10 mg/kg,iv measured at 0.083 to 24 hrs post administration by LC-MS/MS analysis; assay type: ADME, organism-based; settings: in vivo, time 0.083-24 hrs, read-out: Vdss
Mus musculus [17] = assay: Antialzheimer activity against amyloid beta (25 to 35)-induced cognitive deficit ICR mouse model assessed as increase in preferential index at 25 mg/kg,po observed after 24 hrs of administration by novel object recognition test; assay type: functional, organism-based
Mus musculus [18] = assay: Antialzheimer activity against amyloid beta (25 to 35)-induced brain injury ICR mouse model assessed as increase in NeuN expression level in cerebral cortex at 50 mg/kg,po administrated for 21 days by immunohistochemistry analysis; assay type: functional, organism-based; settings: time 21.0 day
Mus musculus [19] = assay: Antialzheimer activity against amyloid beta (25 to 35)-induced spatial memory deficit ICR mouse model assessed as increase in exploration time spent at 50 mg/kg,po observed at 16 to 20 days of administration by morris water maze test; assay type: functional, organism-based; settings: time 16-20 day
PC-12 [20] = assay: Cytotoxicity against rat PC12 cells assessed as effect on survival at < 60 uM incubated for 24 hrs by MTT assay; assay type: toxicity, cell-based; settings: pc-12, 24 h
[21] = Cytotoxicity against human HepG2 cells assessed as cell viability at 120 uM incubated for 24 hrs by MTT assay; assay type: toxicity, cell-based; settings: read-out: Activity
[22] = Cytotoxicity against human HUVEC cells assessed as cell viability at 120 uM incubated for 24 hrs by MTT assay; assay type: toxicity, cell-based; settings: read-out: Activity
[23] = Half life in Sprague-Dawley rat at 10 mg/kg,iv measured at 0.083 to 24 hrs post administration by LC-MS/MS analysis; assay type: ADME, organism-based; settings: in vivo, time 0.083-24 hrs
PC-12 [24] = assay: Neuroprotective activity against amyloid beta (25 to 35)-induced rat PC12 cells assessed as decrease in JNK expression level at 7.5 to 30 uM preincubated for 30 mins followed by amyloid beta (25 to 35) addition and measured after 24 hrs by western blot assay; assay type: functional, cell-based; settings: dose 7.5-30 µM, time 24.5 hrs
PC-12 [25] = assay: Neuroprotective activity against amyloid beta (25 to 35)-induced rat PC12 cells assessed as decrease in intracellular ROS level at 7.5 uM incubated for 24 hrs by DCFH-DA staining based flow cytometry assay; assay type: functional, cell-based
[26] = Toxicity in ICR mouse assessed as pathological changes in liver at 12.5 to 50 mg/kg,po administrated for 20 days by hematoxylin and eosin staining based microscopic analysis; assay type: organism-based; settings: in vivo, 480 h, dose 12.5-50 mg/kg, time 20 day
[27] = AUC (0-infinity) in Sprague-Dawley rat at 10 mg/kg,iv measured at 0.083 to 24 hrs post administration by LC-MS/MS analysis; assay type: ADME, organism-based; parameters: dose 10 mg/kg, time 0.083-24 hrs, route iv; settings: in vivo
Mus musculus [28] = assay: Antialzheimer activity against amyloid beta (25 to 35)-induced brain injury ICR mouse model assessed as increase in NeuN expression level in hippocampal CA3 region at 50 mg/kg,po administrated for 21 days by immunohistochemistry analysis; assay type: functional, organism-based; settings: time 21.0 day
Mus musculus [29] = assay: Antialzheimer activity against amyloid beta (25 to 35)-induced cognitive deficit ICR mouse model assessed as increase in discrimination index at 50 mg/kg,po observed after 24 hrs of administration by novel object recognition test; assay type: functional, organism-based
PC-12 [30] = assay: Neuroprotective activity against rat PC12 cells assessed as reduction in amyloid beta (25 to 35)-induced cytotoxicity at 15 uM incubated for 4 hrs followed by amyloid beta (25 to 35) treatment for 24 hrs by MTT assay relative to control; assay type: functional; parameters: scale not given: the % may be the effect or the level left; settings: time 28 hrs
Mus musculus [31] = assay: Antialzheimer activity against amyloid beta (25 to 35)-induced brain injury ICR mouse model assessed as attenuation of pathological change in hippocampal CA3 region at 12.5 to 50 mg/kg,po administrated for 21 days by hematoxylin and eosin staining based microscopic analysis; assay type: functional, organism-based; settings: dose 12.5-50 mg/kg, time 21.0 day

In the case of CC1(C)CCC[C@](C)([C@H]2CC[C@]3(C)[C@@H]2[C@H](O)C[C@@H]2[C@@]4(C)CC[C@H](OC(=O)NCc5ccccc5)C(C)(C)[C@@H]4CC[C@]23C)O1, the Activity (PC-12 [1]) is reported as “Toxic”, the Activity (Mus musculus [2]) is reported as “Active” and the Activity (Mus musculus [3]) is reported as “inactive”. The Activity (PC-12 [4]) was “Active”, the Activity (HepG2 [5]) was “Toxic” and the EC50 (PC-12 [6]) was 13.2 µM. The AUC(0-inf) [7] was 326 ng·h/mL, the Activity (PC-12 [8]) was “Active” and the Activity (HUVEC) was “Toxic”. The Activity (Mus musculus [9]) was “Active”, the MRT last [10] was 0.426 h and the Activity (HepG2 [11]) was “Non-Toxic”. The Cmax [12] was 220 ng/mL, the Activity (PC-12 [13]) was “Active” and the clearance [14] was 4.29 mL/min/kg. For the same molecule, the Activity (Mus musculus [15]) was “inactive”, the Vd [16] was 0.133 L/kg and the Activity (Mus musculus [17]) was “Active”. The Activity (Mus musculus [18]) was “Active”, the Activity (Mus musculus [19]) was “Active” and the Activity (PC-12 [20]) was “Non-Toxic”. The viability at 24 h, 120 µM [21] was greater than 50%, the viability at 24 h, 120 µM [22] was greater than 50% and the half-life [23] was 2.6 h. The Activity (PC-12 [24]) was “Active”, the Activity (PC-12 [25]) was “Active” and the Activity [26] was “Non-Toxic”. For the same molecule, the AUC(0-inf) [27] was 40700 ng·h/mL, the Activity (Mus musculus [28]) was “Active” and the Activity (Mus musculus [29]) was “Active”. The Activity (PC-12 [30]) was 73.01% and the Activity (Mus musculus [31]) was “Active”.
